Literature values in patent EP0374097A2, “Use of peptide isosteres as retroviral protease inhibitors” (CIBA-GEIGY AG, priority 1988, dated 1990).

Test system: gag-Protease von HIV
Conditions: stated as known

Substance: Pepstatin
- Hemmung der gag-Protease von HIV: gehemmt
